{"source": "patent US4663329A", "about": "“Thienopyridinone derivatives and anti-bacterial compositions containing them” (Sanofi, priority 1984, dated 1987)", "type_in_all_cases": "cell-based", "key": {"[1]": {"test_system": "Providencia stuartii 5158", "assay": "In vitro antibacterial activity, MIC, Providencia stuartii 5158", "settings": "Providencia stuartii 5158; 37° C., pH=7.4, inoculum 10^4; read-out: MIC", "method": "(§1) Tests carried out in vitro in accordance with the experimental procedure described hereunder have provided evidence of the antibacterial activity in question.\n(§2) For this purpose, the M.I.C. were determined i.e. the minimal inhibiting concentrations of the compound under study acting on the growth of the bacteria at 37° C.\n(§3) The serial dilutions method was used utilizing a MUELLER HINTON gelose medium at pH=7.4 and a bacterial inoculum of 10^4 units forming colonies. This inoculum was applied to the gelose by means of a multiple sowing device.\n(§4) A scale of concentrations ranging from 100 to 0.05 μg/ml of compound to be studied was used starting from mother solutions titrating 1000 μg/ml, all the subsequent dilutions being effected in distilled water."}, "[2]": {"test_system": "Escherichia coli SOL RL 90", "assay": "In vitro antibacterial activity, MIC, Escherichia coli SOL RL 90", "settings": "Escherichia coli, SOLRL90", "method": "as §1, §2, §3, §4"}, "Shigella sonnei R 018": {"test_system": "Shigella sonnei R 018", "assay": "In vitro antibacterial activity, MIC, Shigella sonnei R 018", "settings": "R018, 37° C., pH=7.4, inoculum 10^4", "method": "as §1, §2, §3, §4"}, "[3]": {"test_system": "Proteus vulgaris RL 99 bis", "assay": "In vitro antibacterial activity, MIC, Proteus vulgaris RL 99 bis", "settings": "RL99BIS; Proteus vulgaris RL 99 bis; 37° C., pH=7.4, inoculum 10^4; read-out: MIC", "method": "as §1, §2, §3, §4"}, "[4]": {"test_system": "Salmonella typhi ATCC 6539", "assay": "In vitro antibacterial activity, MIC, Salmonella typhi ATCC 6539", "settings": "Salmonella enterica", "method": "as §1, §2, §3, §4"}, "[5]": {"test_system": "Proteus mirabilis ATCC 21100", "assay": "In vitro antibacterial activity, MIC, Proteus mirabilis ATCC 21100", "settings": "ATCC21100; Proteus mirabilis ATCC 21100; 37° C., pH=7.4, inoculum 10^4; read-out: MIC", "method": "as §1, §2, §3, §4"}, "[6]": {"test_system": "Bacillus subtilis ATCC 6633", "assay": "In vitro antibacterial activity, MIC, Bacillus subtilis ATCC 6633", "settings": "Bacillus subtilis, ATCC6633", "method": "as §1, §2, §3, §4"}, "[7]": {"test_system": "Klebsiella pneumoniae R 30", "assay": "In vitro antibacterial activity, MIC, Klebsiella pneumoniae R 30", "settings": "Klebsiella pneumoniae, R30", "method": "as §1, §2, §3, §4"}, "[8]": {"test_system": "Bordetella bronchiseptica ATCC 4617", "assay": "In vitro antibacterial activity, MIC, Bordetella bronchiseptica ATCC 4617", "settings": "ATCC4617, 37° C., pH=7.4, inoculum 10^4, read-out: MIC", "method": "as §1, §2, §3, §4"}, "[9]": {"test_system": "Citrobacter freundii GN 346", "assay": "In vitro antibacterial activity, MIC, Citrobacter freundii GN 346", "settings": "Citrobacter freundii, GN346", "method": "as §1, §2, §3, §4"}, "[10]": {"test_system": "Salmonella typhimurium A 222 IP", "assay": "In vitro antibacterial activity, MIC, Salmonella typhimurium A 222 IP", "settings": "Salmonella enterica, TYPHIMURIUM", "method": "as §1, §2, §3, §4"}, "[11]": {"test_system": "Klebsiella pneumoniae ATCC 10031", "assay": "In vitro antibacterial activity, MIC, Klebsiella pneumoniae ATCC 10031", "settings": "ATCC10031; Klebsiella pneumoniae ATCC 10031; 37° C., pH=7.4, inoculum 10^4; read-out: MIC", "method": "as §1, §2, §3, §4"}, "[12]": {"test_system": "Enterobacter cloacae P 99", "assay": "In vitro antibacterial activity, MIC, Enterobacter cloacae P 99", "settings": "Enterobacter cloacae, P99", "method": "as §1, §2, §3, §4"}, "Proteus morganii 1510": {"test_system": "Proteus morganii 1510", "assay": "In vitro antibacterial activity, MIC, Proteus morganii 1510", "settings": "Morganella morganii; Proteus morganii 1510; 37° C., pH=7.4, inoculum 10^4; read-out: MIC", "method": "as §1, §2, §3, §4"}, "[13]": {"test_system": "Acinetobacter calcoaceticus C 1733", "assay": "In vitro antibacterial activity, MIC, Acinetobacter calcoaceticus C 1733", "settings": "C1733, 37° C., pH=7.4, inoculum 10^4, read-out: MIC", "method": "as §1, §2, §3, §4"}, "[14]": {"test_system": "Staphylococcus aureus 53154 IP", "assay": "In vitro antibacterial activity, MIC, Staphylococcus aureus 53154 IP", "settings": "Staphylococcus aureus 53154 IP; 37° C., pH=7.4, inoculum 10^4; read-out: MIC", "method": "as §1, §2, §3, §4"}, "[15]": {"test_system": "Pseudomonas aeruginosa 8203", "assay": "In vitro antibacterial activity, MIC, Pseudomonas aeruginosa 8203", "settings": "37° C., pH=7.4, inoculum 10^4, read-out: MIC", "method": "as §1, §2, §3, §4"}, "[16]": {"test_system": "Enterobacter hafniae RO 46", "assay": "In vitro antibacterial activity, MIC, Enterobacter hafniae RO 46", "settings": "Hafnia alvei, RO46; Enterobacter hafniae RO 46; 37° C., pH=7.4, inoculum 10^4; read-out: MIC", "method": "as §1, §2, §3, §4"}, "[17]": {"test_system": "Serratia liquefaciens 376", "assay": "In vitro antibacterial activity, MIC, Serratia liquefaciens 376", "settings": "37° C., pH=7.4, inoculum 10^4, read-out: MIC", "method": "as §1, §2, §3, §4"}, "[18]": {"test_system": "Streptococcus faecalis 5855 IP", "assay": "In vitro antibacterial activity, MIC, Streptococcus faecalis 5855 IP", "settings": "Enterococcus faecalis, 37° C., pH=7.4, inoculum 10^4, read-out: MIC", "method": "as §1, §2, §3, §4"}, "[19]": {"test_system": "Escherichia coli 54127 IP", "assay": "In vitro antibacterial activity, MIC, Escherichia coli 54127 IP", "settings": "Escherichia coli 54127 IP; 37° C., pH=7.4, inoculum 10^4; read-out: MIC", "method": "as §1, §2, §3, §4"}}, "data": [{"compound": "CCn1cc(C(=O)O)c(=O)c2cc(/C=N\\O)sc21", "note": "[Compound C, 4,7-Dihydro-7-ethyl-2-hydroxyiminomethyl-4-oxo-thieno[2,3-b]pyridine-5-carboxylic acid, syn-isomer]", "values": [{"measurement": "MIC", "setting": "[1]", "value": 12.5, "unit": "µg/mL"}, {"measurement": "MIC", "setting": "[2]", "value": 3.12, "unit": "µg/mL"}, {"measurement": "MIC", "setting": "Shigella sonnei R 018", "value": 0.8, "unit": "µg/mL"}, {"measurement": "MIC", "setting": "[3]", "value": 12.5, "unit": "µg/mL"}, {"measurement": "MIC", "setting": "[4]", "value": 3.12, "unit": "µg/mL"}, {"measurement": "MIC", "setting": "[5]", "value": 12.5, "unit": "µg/mL"}, {"measurement": "MIC", "setting": "[6]", "value": 6.25, "unit": "µg/mL"}, {"measurement": "MIC", "setting": "[7]", "value": 6.25, "unit": "µg/mL"}, {"measurement": "MIC", "setting": "[8]", "value": "> 100", "unit": "µg/mL"}, {"measurement": "MIC", "setting": "[9]", "value": 3.12, "unit": "µg/mL"}, {"measurement": "MIC", "setting": "[10]", "value": 3.12, "unit": "µg/mL"}, {"measurement": "MIC", "setting": "[11]", "value": 12.5, "unit": "µg/mL"}, {"measurement": "MIC", "setting": "[12]", "value": 3.12, "unit": "µg/mL"}, {"measurement": "MIC", "setting": "Proteus morganii 1510", "value": 0.4, "unit": "µg/mL"}, {"measurement": "MIC", "setting": "[13]", "value": "> 100", "unit": "µg/mL"}, {"measurement": "MIC", "setting": "[14]", "value": 12.5, "unit": "µg/mL"}, {"measurement": "MIC", "setting": "[15]", "value": "> 100", "unit": "µg/mL"}, {"measurement": "MIC", "setting": "[16]", "value": 12.5, "unit": "µg/mL"}, {"measurement": "MIC", "setting": "[17]", "value": 50, "unit": "µg/mL"}, {"measurement": "MIC", "setting": "[18]", "value": "> 100", "unit": "µg/mL"}, {"measurement": "MIC", "setting": "[19]", "value": 12.5, "unit": "µg/mL"}]}]}
